From patent US7033593B2, “Immunogen comprising an HIV envelope protein, a ligand and H2 peptide” (priority 2000, dated 2006)
pKd: −log10 of the molar value. Entries after “also recorded” stand apart in the source; their conditions may differ.

What was measured:
[1] = test system: gp41-gp120-sCD4 complex (ADA gp41, 89.6 gp120); assay: SPR binding of DP178 to gp41-gp120 and gp41-gp120-sCD4 complexes; parameters: species or system HIV; conditions: DP178 50 μg/ml
Description: FIGS. 17A and 17B show induction of HR-2 peptide binding to gp120-gp41 complex. […] Soluble 89.6 gp120 (100 μg/ml) or a gp120-CD4 mixture (gp120 pre-incubated with 0.3 mg/ml of CD4 for 30 min) was injected at 5 μl/min for 10 min over a sensor surface immobilized with ADA gp41. At the end of the injections, wash buffer (PBS) was allowed to flow until the surface was stable with no baseline drift. Roughly 300 RU of gp120 and 850 RU of gp120-CD4 formed stable complexes with the immobilized gp41 surface. […] Thus both surfaces were stable and had equivalent amount of associated gp120 or gp120-CD4.
In the preparation of HIV 89.6 gp140 envelope, there is uncleaved gp140, and cleaved gp140 components of gp120 and gp41. Thus, it is possible that HR-2 peptide could be induced to bind uncleaved gp140 and/or could be induced to bind to cleaved gp120 and gp41.

recombinant ADA gp41 = assay: SPR binding of HR-2 peptide to immobilized recombinant gp41; parameters: species or system HIV ADA
Description: FIGS. 16A–16F show constitutive binding of HR-2 peptides to immobilized gp41 and CD4 induced binding to gp140. FIGS. 16A and 16B. Binding of DP178 (12.5 to 100 μg/ml) to immobilized ADA gp41 and CD4-gp140 (FIG. 16B) surfaces. FIGS. 16C and 16D. […] FIGS. 16E and 16F. Scatchard plots of RU vs RU/C for DP178 binding to gp41 (FIG. 16E) and to CD4-gp140 (FIG. 16F). Data are representative of 2 separate experiments.
Binding of HR-2 peptide to recombinant gp41. To directly determine if HR-2 peptides can constitutively bind to purified gp41, recombinant ADA gp41 was immobilized to a sensor surface and the binding of HR-2 peptide, DP178, determined. […] To compare the binding of DP178 HR-2 peptide to recombinant gp41 versus HIV 89.6 gp140-sCD4 complex, the equilibrium binding contants (Keq) of HR-2 binding to both were measured. While the Keq of DP178 binding to recombinant gp41 was weak at 26.7 μM (FIG. 16E), the Keq of DP178 binding to sCD4-gp140 was 10 fold stronger at 1.7 μM (FIG. 16F).

enfuvirtide
binding to gp41-gp120(-sCD4) complex compared to gp41 (in words) [1]: upregulated; also recorded: higher binding
binding to immobilized gp41 (in words) (recombinant ADA gp41; SPR): bound well
pKd (recombinant ADA gp41; Scatchard plot, read-out: Keq (equilibrium binding constant)): 4.57
